Experiments:
[1] = molecular target: T1, Serine/threonine-protein kinase LATS1 (Homo sapiens) (UniProt O95835); experiment: Selectivity interaction (KinomeScan (DiscoverX)) EUB0000294b LATS1; conditions: at 1 µM
T1 sequence (whole entry): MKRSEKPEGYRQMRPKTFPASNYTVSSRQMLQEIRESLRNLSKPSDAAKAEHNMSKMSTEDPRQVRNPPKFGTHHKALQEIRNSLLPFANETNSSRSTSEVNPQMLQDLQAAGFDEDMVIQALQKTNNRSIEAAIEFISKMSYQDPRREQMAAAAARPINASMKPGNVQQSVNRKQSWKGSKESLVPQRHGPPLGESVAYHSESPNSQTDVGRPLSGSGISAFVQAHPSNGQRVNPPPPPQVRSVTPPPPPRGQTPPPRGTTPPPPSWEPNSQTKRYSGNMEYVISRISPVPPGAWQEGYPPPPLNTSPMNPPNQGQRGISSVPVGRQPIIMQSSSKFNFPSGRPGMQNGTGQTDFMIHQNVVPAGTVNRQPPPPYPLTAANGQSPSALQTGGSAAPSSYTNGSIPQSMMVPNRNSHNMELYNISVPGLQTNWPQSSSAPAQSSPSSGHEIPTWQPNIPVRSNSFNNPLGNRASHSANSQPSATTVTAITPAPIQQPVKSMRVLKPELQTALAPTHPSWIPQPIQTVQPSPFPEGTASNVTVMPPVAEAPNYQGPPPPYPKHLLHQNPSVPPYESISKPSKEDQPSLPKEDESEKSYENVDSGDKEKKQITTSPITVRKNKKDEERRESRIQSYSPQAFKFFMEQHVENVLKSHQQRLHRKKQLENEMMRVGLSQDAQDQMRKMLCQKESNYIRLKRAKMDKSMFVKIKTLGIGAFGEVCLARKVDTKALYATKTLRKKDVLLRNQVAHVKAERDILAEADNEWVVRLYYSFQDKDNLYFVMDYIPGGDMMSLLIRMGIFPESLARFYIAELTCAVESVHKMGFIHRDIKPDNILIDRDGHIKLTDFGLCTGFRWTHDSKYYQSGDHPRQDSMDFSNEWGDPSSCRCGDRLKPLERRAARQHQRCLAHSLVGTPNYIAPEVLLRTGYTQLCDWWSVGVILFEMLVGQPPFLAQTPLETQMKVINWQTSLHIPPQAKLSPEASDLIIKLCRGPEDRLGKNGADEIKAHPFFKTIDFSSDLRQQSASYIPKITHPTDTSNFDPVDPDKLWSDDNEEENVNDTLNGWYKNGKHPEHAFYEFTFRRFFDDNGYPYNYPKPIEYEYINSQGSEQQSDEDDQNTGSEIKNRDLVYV

[2] = molecular target: Sodium-dependent dopamine transporter (Homo sapiens, UniProt Q01959); experiment: Selectivity interaction (GPCR panel (PDSP screen)) EUB0000294b SLC6A3; conditions: at 10 µM
Sequence of Sodium-dependent dopamine transporter (Q01959 whole entry): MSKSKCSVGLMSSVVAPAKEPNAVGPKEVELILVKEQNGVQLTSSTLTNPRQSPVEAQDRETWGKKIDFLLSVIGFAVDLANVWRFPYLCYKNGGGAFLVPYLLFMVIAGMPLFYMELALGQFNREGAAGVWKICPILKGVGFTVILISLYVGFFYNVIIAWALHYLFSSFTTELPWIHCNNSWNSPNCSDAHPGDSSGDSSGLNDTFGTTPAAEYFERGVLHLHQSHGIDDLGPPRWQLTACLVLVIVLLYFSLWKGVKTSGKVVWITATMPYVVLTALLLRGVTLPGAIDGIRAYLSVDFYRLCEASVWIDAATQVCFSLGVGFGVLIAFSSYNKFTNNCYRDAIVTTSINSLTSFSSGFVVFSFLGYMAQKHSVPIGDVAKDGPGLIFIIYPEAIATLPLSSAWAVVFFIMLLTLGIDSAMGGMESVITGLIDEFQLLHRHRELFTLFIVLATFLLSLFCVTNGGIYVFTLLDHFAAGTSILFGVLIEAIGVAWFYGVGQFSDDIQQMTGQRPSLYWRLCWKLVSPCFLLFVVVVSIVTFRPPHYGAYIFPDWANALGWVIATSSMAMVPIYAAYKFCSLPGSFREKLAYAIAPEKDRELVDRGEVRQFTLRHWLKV

Nischarin (Homo sapiens) = Nischarin (Homo sapiens) (UniProt Q9Y2I1); experiment: Selectivity interaction (MDS Pharma Service panel (GPCR, ion channels, receptors, and other enzymes, radioligand binding assays)) EUB0000294b NISCH; conditions: at 10 µM
[3] = molecular target: T2, Dual specificity mitogen-activated protein kinase kinase 5 (Homo sapiens) (UniProt Q13163); experiment: Selectivity interaction (KinomeScan (DiscoverX)) EUB0000294b MAP2K5; conditions: at 1 µM
T2 sequence (whole entry): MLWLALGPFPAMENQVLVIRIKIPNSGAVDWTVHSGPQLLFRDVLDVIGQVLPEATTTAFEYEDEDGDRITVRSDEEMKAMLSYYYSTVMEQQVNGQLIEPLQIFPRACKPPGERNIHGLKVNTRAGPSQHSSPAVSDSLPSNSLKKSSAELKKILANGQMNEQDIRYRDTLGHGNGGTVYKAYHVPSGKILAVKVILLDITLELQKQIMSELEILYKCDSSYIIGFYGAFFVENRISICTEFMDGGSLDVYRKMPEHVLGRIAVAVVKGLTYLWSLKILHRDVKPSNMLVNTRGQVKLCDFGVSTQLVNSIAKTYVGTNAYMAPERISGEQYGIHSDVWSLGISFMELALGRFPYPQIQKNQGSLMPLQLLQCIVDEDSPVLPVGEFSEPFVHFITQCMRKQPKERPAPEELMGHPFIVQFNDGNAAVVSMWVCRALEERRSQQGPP

[4] = molecular target: Aurora kinase A (Homo sapiens) (UniProt O14965); experiment: Selectivity interaction (KinomeScan (DiscoverX)) EUB0000294b STK6; conditions: at 1 µM
Sequence of Aurora kinase A (Homo sapiens) (O14965 whole entry): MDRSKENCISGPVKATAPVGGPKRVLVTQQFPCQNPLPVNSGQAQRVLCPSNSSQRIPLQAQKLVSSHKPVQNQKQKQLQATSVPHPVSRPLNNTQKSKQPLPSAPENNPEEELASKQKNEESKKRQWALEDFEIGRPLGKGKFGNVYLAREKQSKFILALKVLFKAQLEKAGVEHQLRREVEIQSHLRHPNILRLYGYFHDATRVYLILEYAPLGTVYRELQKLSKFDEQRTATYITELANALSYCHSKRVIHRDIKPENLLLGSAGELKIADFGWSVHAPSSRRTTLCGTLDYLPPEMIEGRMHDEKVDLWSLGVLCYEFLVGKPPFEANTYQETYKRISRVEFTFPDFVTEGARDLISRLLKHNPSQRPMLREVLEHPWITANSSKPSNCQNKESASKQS

[5] = molecular target: NT-3 growth factor receptor (Homo sapiens, UniProt Q16288); experiment: Selectivity interaction (KinomeScan (DiscoverX)) EUB0000294b NTRK3; conditions: at 1 µM
Sequence of NT-3 growth factor receptor (Q16288 32-839 limits assumed): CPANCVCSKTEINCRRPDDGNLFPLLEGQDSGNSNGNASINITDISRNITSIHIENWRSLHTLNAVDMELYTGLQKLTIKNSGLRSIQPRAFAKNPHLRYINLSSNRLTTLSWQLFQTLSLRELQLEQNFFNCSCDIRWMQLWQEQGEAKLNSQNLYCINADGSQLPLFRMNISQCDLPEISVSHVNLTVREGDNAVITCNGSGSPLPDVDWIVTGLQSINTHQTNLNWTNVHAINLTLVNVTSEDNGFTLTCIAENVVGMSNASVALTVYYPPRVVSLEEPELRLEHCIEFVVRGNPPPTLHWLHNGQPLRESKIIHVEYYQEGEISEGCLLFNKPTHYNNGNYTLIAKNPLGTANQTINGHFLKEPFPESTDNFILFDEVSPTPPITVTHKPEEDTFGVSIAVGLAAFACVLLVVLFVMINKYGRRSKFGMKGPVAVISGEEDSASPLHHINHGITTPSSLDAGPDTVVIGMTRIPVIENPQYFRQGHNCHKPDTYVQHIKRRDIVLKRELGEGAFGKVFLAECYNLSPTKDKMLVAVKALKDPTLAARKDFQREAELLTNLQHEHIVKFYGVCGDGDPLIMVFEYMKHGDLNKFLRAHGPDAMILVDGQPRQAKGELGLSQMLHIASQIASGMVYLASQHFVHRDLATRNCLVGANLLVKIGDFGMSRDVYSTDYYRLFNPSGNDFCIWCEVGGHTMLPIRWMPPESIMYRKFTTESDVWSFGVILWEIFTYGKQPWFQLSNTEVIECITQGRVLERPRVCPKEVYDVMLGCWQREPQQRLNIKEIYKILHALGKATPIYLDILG

[6] = molecular target: T3, Mitogen-activated protein kinase kinase kinase 13 (Homo sapiens) (UniProt O43283); experiment: Selectivity interaction (KinomeScan (DiscoverX)) EUB0000347a MAP3K13; conditions: at 1 µM
T3 sequence (whole entry): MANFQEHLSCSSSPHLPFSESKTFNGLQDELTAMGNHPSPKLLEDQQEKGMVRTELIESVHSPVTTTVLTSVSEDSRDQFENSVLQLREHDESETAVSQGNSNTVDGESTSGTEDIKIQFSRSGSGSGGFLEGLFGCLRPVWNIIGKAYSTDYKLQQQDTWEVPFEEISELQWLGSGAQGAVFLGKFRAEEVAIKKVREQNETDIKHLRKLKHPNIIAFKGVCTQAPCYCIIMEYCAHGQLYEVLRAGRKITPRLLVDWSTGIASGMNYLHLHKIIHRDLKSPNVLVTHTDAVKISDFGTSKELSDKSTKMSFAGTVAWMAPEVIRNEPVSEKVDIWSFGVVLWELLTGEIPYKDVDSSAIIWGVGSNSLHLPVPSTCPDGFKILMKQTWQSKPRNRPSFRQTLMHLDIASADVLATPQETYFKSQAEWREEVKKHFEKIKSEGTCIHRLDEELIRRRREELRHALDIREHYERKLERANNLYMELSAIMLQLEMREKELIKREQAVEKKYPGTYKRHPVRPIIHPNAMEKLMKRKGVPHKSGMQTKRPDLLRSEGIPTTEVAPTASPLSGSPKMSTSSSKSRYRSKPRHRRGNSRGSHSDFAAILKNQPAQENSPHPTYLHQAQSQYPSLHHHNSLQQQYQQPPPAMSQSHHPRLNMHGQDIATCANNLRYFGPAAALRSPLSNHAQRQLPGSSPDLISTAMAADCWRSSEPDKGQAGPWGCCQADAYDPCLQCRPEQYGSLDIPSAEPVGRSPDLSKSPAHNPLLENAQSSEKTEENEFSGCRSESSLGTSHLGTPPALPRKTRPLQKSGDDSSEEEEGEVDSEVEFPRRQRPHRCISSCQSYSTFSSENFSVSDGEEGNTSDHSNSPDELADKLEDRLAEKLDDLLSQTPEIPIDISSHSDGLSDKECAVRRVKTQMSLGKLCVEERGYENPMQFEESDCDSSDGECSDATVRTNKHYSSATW

[7] = molecular target: 5'-AMP-activated protein kinase catalytic subunit alpha-1 (Homo sapiens, UniProt Q13131); experiment: Selectivity interaction (KinomeScan (DiscoverX)) EUB0000347a PRKAA1; conditions: at 1 µM
[8] = molecular target: Cyclin-dependent kinase 5 (Homo sapiens) (UniProt Q00535); experiment: Selectivity interaction (KinomeScan (DiscoverX)) EUB0000347a CDK5; conditions: at 1 µM
Sequence of Cyclin-dependent kinase 5 (Homo sapiens) (Q00535 whole entry, looked up): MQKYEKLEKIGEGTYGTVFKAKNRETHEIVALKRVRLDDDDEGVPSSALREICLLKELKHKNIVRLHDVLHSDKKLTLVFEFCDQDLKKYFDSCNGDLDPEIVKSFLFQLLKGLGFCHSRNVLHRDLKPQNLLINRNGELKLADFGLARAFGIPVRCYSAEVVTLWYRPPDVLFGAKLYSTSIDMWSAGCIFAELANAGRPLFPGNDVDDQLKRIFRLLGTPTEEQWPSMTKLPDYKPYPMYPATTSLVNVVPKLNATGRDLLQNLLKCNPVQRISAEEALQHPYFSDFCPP

[9] = molecular target: Dual specificity protein kinase CLK4 (Homo sapiens) (UniProt Q9HAZ1); experiment: Selectivity interaction (KinomeScan (DiscoverX)) EUB0000347a CLK4; conditions: at 1 µM
[10] = molecular target: Cyclin-dependent kinase-like 2 (Homo sapiens) (UniProt Q92772); experiment: Selectivity interaction (KinomeScan (DiscoverX)) EUB0000240b CDKL2; conditions: at 1 µM
Sequence of Cyclin-dependent kinase-like 2 (Homo sapiens) (Q92772 whole entry): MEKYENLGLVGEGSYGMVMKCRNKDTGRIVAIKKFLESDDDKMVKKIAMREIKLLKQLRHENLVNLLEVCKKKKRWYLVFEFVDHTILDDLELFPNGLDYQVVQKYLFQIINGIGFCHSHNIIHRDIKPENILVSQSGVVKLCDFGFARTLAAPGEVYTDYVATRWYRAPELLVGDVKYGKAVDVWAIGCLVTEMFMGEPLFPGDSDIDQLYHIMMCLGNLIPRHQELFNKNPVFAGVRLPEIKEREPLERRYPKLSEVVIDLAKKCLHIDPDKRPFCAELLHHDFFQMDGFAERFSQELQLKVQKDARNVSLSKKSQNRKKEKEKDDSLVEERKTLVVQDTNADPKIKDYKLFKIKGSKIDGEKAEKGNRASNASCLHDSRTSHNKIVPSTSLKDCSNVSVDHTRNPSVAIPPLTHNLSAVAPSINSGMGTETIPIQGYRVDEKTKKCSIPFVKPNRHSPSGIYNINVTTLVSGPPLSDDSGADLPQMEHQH

[11] = molecular target: Kappa-type opioid receptor (Homo sapiens, UniProt P41145); experiment: Selectivity interaction (SafetyScreen44™ (Eurofins, ion channels, GPCRs, hydrolases, and other enzymes)) EUB0000282b OPRK1; conditions: at 10 µM
Sequence of Kappa-type opioid receptor (P41145 whole entry): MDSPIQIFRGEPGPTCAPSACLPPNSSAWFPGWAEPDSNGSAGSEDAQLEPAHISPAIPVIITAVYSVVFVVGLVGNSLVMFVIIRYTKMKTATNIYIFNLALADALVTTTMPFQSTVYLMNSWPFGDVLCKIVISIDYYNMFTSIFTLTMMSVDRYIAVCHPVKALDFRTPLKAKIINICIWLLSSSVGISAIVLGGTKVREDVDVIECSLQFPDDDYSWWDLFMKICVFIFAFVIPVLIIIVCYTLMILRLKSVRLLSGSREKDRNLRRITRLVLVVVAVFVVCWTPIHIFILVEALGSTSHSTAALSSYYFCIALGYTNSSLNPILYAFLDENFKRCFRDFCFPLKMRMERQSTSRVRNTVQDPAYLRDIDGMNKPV

[12] = molecular target: Epidermal growth factor receptor (Homo sapiens, UniProt P00533); experiment: Selectivity interaction (KinomeScan (DiscoverX)) EUB0000250b EGFR; conditions: at 1 µM
[13] = molecular target: T4, Ephrin type-B receptor 6 (Homo sapiens) (UniProt O15197); experiment: Selectivity interaction (KinomeScan (Eurofins)) EUB0000250b EPHB6; conditions: at 1 µM
T4 sequence (whole entry): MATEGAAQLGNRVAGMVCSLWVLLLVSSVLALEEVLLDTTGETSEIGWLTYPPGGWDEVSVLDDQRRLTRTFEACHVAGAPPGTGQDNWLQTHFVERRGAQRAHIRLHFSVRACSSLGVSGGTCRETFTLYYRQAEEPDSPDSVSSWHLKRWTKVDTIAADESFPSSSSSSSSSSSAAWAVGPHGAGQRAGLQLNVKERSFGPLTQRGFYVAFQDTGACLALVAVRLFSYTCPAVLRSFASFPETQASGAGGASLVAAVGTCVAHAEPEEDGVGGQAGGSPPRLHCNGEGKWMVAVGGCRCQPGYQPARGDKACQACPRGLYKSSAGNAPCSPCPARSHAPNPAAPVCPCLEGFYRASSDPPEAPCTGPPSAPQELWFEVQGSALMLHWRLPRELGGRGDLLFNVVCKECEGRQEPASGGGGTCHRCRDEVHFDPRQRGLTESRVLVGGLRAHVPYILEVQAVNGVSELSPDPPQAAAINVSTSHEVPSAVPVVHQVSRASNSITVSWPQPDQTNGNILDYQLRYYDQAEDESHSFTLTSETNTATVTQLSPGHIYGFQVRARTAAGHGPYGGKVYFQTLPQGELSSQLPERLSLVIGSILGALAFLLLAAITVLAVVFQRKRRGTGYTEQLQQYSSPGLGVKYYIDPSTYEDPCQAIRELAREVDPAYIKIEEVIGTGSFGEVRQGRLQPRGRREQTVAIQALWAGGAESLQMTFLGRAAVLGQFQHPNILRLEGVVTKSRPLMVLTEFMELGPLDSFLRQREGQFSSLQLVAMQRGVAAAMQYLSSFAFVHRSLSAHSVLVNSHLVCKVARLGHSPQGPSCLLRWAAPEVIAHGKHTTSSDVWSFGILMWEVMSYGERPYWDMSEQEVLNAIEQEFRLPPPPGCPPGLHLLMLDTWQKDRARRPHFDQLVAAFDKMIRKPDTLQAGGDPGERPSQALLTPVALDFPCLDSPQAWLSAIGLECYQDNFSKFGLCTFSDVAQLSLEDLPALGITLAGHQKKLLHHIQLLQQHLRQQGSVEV

[14] = molecular target: Ephrin type-A receptor 5 (Homo sapiens) (UniProt P54756); experiment: Selectivity interaction (KinomeScan (Eurofins)) EUB0000250b EPHA5; conditions: at 1 µM
[15] = molecular target: Ephrin type-B receptor 3 (Homo sapiens) (UniProt P54753); experiment: Selectivity interaction (KinomeScan (Eurofins)) EUB0000250b EPHB3; conditions: at 1 µM
Sequence of Ephrin type-B receptor 3 (Homo sapiens) (P54753 whole entry): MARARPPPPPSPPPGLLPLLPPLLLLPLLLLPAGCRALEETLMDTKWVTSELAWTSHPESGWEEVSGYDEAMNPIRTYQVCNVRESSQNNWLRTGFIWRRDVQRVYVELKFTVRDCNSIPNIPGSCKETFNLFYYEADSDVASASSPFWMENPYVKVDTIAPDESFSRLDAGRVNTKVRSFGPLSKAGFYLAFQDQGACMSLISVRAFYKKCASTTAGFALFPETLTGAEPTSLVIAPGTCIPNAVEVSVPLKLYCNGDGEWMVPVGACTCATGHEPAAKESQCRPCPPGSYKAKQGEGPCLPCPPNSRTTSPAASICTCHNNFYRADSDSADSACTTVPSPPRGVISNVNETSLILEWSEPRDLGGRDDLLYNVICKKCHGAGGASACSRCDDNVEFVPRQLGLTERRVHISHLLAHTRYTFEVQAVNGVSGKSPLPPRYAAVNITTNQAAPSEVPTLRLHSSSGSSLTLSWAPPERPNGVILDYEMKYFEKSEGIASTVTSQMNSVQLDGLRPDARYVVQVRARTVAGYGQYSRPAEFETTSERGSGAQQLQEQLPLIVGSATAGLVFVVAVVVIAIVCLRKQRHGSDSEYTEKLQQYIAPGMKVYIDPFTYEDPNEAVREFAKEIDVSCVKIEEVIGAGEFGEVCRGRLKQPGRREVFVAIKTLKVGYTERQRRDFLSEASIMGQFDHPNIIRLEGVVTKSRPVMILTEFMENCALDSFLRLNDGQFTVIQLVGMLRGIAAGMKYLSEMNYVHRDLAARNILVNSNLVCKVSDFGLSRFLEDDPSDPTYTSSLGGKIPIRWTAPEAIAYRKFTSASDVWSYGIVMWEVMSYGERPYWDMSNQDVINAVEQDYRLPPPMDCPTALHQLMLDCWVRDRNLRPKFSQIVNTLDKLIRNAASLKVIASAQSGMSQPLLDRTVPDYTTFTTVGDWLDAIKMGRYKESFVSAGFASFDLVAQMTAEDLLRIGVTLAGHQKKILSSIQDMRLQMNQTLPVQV

[16] = molecular target: Leukocyte tyrosine kinase receptor (Homo sapiens, UniProt P29376); experiment: Selectivity interaction (KinomeScan (DiscoverX)) EUB0000250b LTK; conditions: at 1 µM
Sequence of Leukocyte tyrosine kinase receptor (P29376 whole entry): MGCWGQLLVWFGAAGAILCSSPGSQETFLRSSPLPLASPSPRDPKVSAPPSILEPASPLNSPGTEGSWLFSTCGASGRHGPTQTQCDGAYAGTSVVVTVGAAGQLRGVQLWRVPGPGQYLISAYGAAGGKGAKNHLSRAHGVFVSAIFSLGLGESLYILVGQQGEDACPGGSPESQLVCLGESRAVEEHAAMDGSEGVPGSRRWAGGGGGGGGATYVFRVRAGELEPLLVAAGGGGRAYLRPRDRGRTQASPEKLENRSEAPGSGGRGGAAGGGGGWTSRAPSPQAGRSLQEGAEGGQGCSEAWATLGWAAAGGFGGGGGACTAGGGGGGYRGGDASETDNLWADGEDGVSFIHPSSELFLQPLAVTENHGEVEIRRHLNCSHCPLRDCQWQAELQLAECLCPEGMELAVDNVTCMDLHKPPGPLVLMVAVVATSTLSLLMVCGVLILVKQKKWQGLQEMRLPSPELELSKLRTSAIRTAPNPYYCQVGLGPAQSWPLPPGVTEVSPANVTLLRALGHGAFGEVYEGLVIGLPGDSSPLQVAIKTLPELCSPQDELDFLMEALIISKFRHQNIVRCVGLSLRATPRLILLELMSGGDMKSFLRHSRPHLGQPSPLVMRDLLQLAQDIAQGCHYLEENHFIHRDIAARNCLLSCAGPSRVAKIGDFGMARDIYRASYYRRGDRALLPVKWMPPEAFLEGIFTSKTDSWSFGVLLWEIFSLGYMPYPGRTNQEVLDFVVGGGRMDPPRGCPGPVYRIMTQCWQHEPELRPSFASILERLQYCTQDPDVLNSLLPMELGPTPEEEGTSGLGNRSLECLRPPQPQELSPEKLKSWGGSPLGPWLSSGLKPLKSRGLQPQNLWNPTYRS

[17] = molecular target: Tyrosine-protein kinase Fer (Homo sapiens, UniProt P16591); experiment: Selectivity interaction (KinomeScan (Eurofins)) EUB0000250b FER; conditions: at 1 µM
[18] = molecular target: T5, Phosphatidylinositol 5-phosphate 4-kinase type-2 beta (Homo sapiens) (UniProt P78356); experiment: Selectivity interaction (KinomeScan (DiscoverX)) EUB0000738a PIP4K2B; conditions: at 1 µM
T5 sequence (whole entry): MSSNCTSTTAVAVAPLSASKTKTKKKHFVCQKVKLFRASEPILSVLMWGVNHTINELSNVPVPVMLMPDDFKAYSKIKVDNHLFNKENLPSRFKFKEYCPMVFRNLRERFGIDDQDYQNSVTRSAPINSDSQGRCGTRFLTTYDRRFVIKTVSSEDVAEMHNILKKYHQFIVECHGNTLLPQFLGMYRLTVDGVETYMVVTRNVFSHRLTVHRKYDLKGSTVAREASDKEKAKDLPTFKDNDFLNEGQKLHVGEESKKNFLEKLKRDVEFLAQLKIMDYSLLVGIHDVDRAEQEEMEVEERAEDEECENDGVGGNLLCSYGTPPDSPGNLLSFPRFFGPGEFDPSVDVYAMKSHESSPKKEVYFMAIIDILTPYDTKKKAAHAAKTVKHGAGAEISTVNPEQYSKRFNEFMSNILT

[19] = molecular target: Dual specificity tyrosine-phosphorylation-regulated kinase 1B (Homo sapiens, UniProt Q9Y463); experiment: Selectivity interaction (KinomeScan (DiscoverX)) EUB0000738a DYRK1B; conditions: at 1 µM

Q: Which % of control [1] does the source give for `CCC(=O)N[C@H]1CC[C@@H](C(=O)N(C)c2ccc(-c3nc4ccccc4o3)cc2)C1` here?
A: The % of control was 48%.

Q: What about the % of inhibition [2] of the same compound?
A: Its % of inhibition is 77%.

Q: And the % of inhibition (Nischarin (Homo sapiens))?
A: The % of inhibition was 19%.

Q: And the % of control [3]?
A: Its % of control is 16%.

Q: And the % of control [4]?
A: Its % of control is 43%.

Q: What about the % of control [5] of the same compound?
A: Its % of control is 32%.

Q: `O=C(NCc1ncc(C(F)(F)F)cc1Cl)c1ccc2c(c1)C1(CCS(=O)(=O)CC1)[C@H](C1CC1)N2S(=O)(=O)c1ccc(F)cc1` was tested. Which % of control [6] did it give?
A: Its % of control is 0%.

Q: And the % of control [7]?
A: The % of control was 39%.

Q: And the % of control [8]?
A: The % of control was 0%.

Q: And the % of control [9]?
A: Its % of control is 0%.

Q: `O=C(Nc1cnc(Oc2ccc(F)cc2)nc1)N1CCc2ncccc2[C@@H]1c1ccc(F)cc1` was tested. Which % of control [10] did it give?
A: The % of control was 33%.

Q: `O=C(NCc1ccc(F)cc1)C1CCN(S(=O)(=O)c2cc(Cl)cc(Cl)c2)CC1` was tested. Which % of control [11] did it give?
A: The % of control was 19%.

Q: With `CN1CCN(c2cnc3c(C4CCN(C(=O)c5ccc(OC(F)(F)F)cc5N)CC4)ncnc3c2)CC1` as the compound, how does the % of control [12] read?
A: Its % of control is 38%.

Q: And the % of control [13]?
A: Its % of control is 18%.

Q: What about the % of control [14] of the same compound?
A: The % of control was 57%.

Q: What about the % of control [15] of the same compound?
A: Its % of control is 42%.

Q: And the % of control [16]?
A: The % of control was 49%.

Q: And the % of control [17]?
A: Its % of control is 38%.

Q: With `CCC(=O)N[C@@H]1CC[C@H](C(=O)N(C)c2ccc(-c3nc4ccccc4o3)cc2)C1` as the compound, how does the % of control [18] read?
A: Its % of control is 45%.

Q: And the % of control [19]?
A: The % of control was 36%.

Reference: ChEMBL document CHEMBL5212743, “Selectivity Literature for EUbOPEN Chemogenomics Library wave 3” (2023)
